Experimental data from US6511976B1, “Halogen substituted tetracyclic tetrahydrofuran derivatives” (Jannsen Pharmaceutica, N.V., priority 1997, dated 2003).

Assays:
[1] = dose of 300 mg/kg; cited from earlier work
mCPP induced effects = assay: mCPP Test on Rats (pre-test time T of 1 hour); format: in vivo; settings: test compound at pre-test time T of 1 hour; 1 mg/kg mCPP intravenously 15 minutes prior to test; Open Field Test
Procedure: Rats were treated with the test compound at a varying dose at a pre-test time T of 1 hour and with 1 mg/kg mCPP (metachlorophenylpiperazine), injected intravenously, 15 minutes prior to the test. After pre-test time T elapsed, treated rats were submitted to the “Open Field Test on Rats” as described in Drug Dev. Res. 18, 119-144 (1989), but using an infra-red light source instead of a Kleverlux® (12V/20W) light source. […] Compound numbers 2 and 8 through 16 were active at a test dose of 2.5 mg/kg or lower. Other compounds were either not tested or were active at a higher dose.

[2] = test system: serotonin (central symptoms elicited with the serotonin agonist tryptamine); assay: ATN Test in Rats: tryptamine interaction; format: in vivo; settings: observed at 90 minutes following subcutaneous administration
Description: (§1) The antipsychotic activity of the subject compounds is evidenced by the experimental data obtained in the combined apomorphine (APO), tryptamine (TRY) and norepinephrine (NOR) test in rats. Said combined apomorphine, tryptamine and norepinephrine test is described in Arch. Int. Pharmacodyn., 227, 238-253 (1977) and provides an empirical evaluation of the relative specificity with which drugs may effect particular neurotransmitter systems centrally (CNS) as well as peripherally. […] The favourable pharmacological property of the present compounds compared to the compounds specifically disclosed in WO 97/38991 lies in their ability to antagonize the central symptoms elicited by apomorphine and tryptamine.

[3] = test system: dopamine (symptoms elicited with the dopamine agonist apomorphine); assay: ATN Test in Rats: apomorphine interaction; format: in vivo; settings: observed at 30 minutes following subcutaneous administration
Description: as §1

## CNCC1CC2c3ccccc3Cc3ccccc3C2O1.O=C(O)C(=O)O (racemic) [(±)-3,3a,8,12b-tetrahydro-N-methyl-2H-dibenzo[3,4:6,7]-cyclohepta-[1,2-b]furan-2-methanamine oxalic acid]
[1]
  activity as antidepressant: inactive

## CN(C)CC1CC2c3ccccc3Cc3ccc(F)cc3C2O1.Cl (racemic) [Compound 2, (±)-(2α,3aβ,12bα)-11-fluoro-3,3a,8,12b-tetrahydro N,N-dimethyl-2H-dibenzo[3,4:6,7]cyclohepta[1,2-b]furan-2-methanamine hydrochloride]
mCPP induced effects
  active dose (40% or more of the tested rats showed suppression of the mCPP induced effects, mCPP-antagonism): ≤ 2.5 mg/kg

## CN(C)CC1CC2c3ccccc3Cc3ccccc3C2O1 (single isomer, unassigned) [a]
[2]
  ED50, tryptamine interaction: antagonism of backward locomotion: 10 mg/kg
  ED50, tryptamine interaction: antagonism of bilateral clonic convulsions: ≧10 mg/kg
[3]
  ED50, apomorphine interaction: antagonism of agitation and stereotypy: >10 mg/kg

## CN(C)CC1CC2c3ccccc3Cc3ccccc3C2O1 (single isomer, unassigned) [b]
[2]
  ED50, tryptamine interaction: antagonism of backward locomotion: 1.3 mg/kg
  ED50, tryptamine interaction: antagonism of bilateral clonic convulsions: 1.3 mg/kg
[3]
  ED50, apomorphine interaction: antagonism of agitation and stereotypy: >10 mg/kg

## CN(C)CC1CC2c3ccccc3Cc3ccccc3C2O1 (single isomer, unassigned) [c]
[2]
  ED50, tryptamine interaction: antagonism of backward locomotion: 10 mg/kg
  ED50, tryptamine interaction: antagonism of bilateral clonic convulsions: 1.25 mg/kg
[3]
  ED50, apomorphine interaction: antagonism of agitation and stereotypy: >10 mg/kg

## CN(C)CC1CC2c3ccccc3Cc3ccccc3C2O1 (single isomer, unassigned) [d]
[2]
  ED50, tryptamine interaction: antagonism of backward locomotion: 0.2 mg/kg
  ED50, tryptamine interaction: antagonism of bilateral clonic convulsions: 0.15 mg/kg
[3]
  ED50, apomorphine interaction: antagonism of agitation and stereotypy: 2.7 mg/kg

## CN(C)CC1CC2c3ccccc3Cc3ccc(F)cc3C2O1.O=C(O)C(O)C(O)C(=O)O (stereo not drawn) [Compound 11, [B-(2α,3aβ,12bα)]-11-fluoro-3,3a,8,12b-tetrahydro-N,N-dimethyl-2H-dibenzo[3,4:6,7]cyclohepta[1,2-b]furan-2-methanamine (+)-[R-R*,R*)]-2,3-dihydroxybutanedioate (1:1)]
[2]
  ED50, tryptamine interaction: antagonism of backward locomotion: 0.5 mg/kg
  ED50, tryptamine interaction: antagonism of bilateral clonic convulsions: 0.4 mg/kg
[3]
  ED50, apomorphine interaction: antagonism of agitation and stereotypy: 2.0 mg/kg
